Measured values reported in PubChem BioAssay AID330 (DTP/NCI, 2004).
Several values for one entry are separate records, joined by “and”; a condition that tells them apart may be missing. Identical values can stand only once. Inconclusive results and toxic doses are left out. The calls were made as follows: active = survival T/C of 150% or more; inactive = T/C below 125% in these data. Peptide text beside a SMILES is read from it. * marks the point of attachment. Cbz = O=C(OCc1ccccc1)*; OBn = c1ccc(CO*)cc1

Test system: P388 leukemia ip, CD2F1 mice, survival T/C
Assay: NCI In Vivo Anticancer Drug Screen. Data for tumor model P388 Leukemia (intraperitoneal) in CD2F1 (CDF1) mice
Details: endpoint: median survival time, higher = longer survival
Summary of the method: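 Mice carrying the transplanted tumor received test compound or vehicle. Survival was recorded in each group, and the value is the treated-group measurement divided by that of the vehicle-treated control group.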

[1] = dose: 25.0 mg/kg/injection, schedule: Q01DX005 (ip), vehicle: Klucel (hydroxypropylcellulose) (HPC)
[2] = dose: 50.0 mg/kg/injection, schedule: Q01DX005 (ip), vehicle: Klucel (hydroxypropylcellulose) (HPC)
[3] = dose: 100.0 mg/kg/injection, schedule: Q01DX005 (ip), vehicle: Klucel (hydroxypropylcellulose) (HPC)
[4] = dose: 200.0 mg/kg/injection, schedule: Q01DX005 (ip), vehicle: Klucel (hydroxypropylcellulose) (HPC)
[5] = dose: 50.0 mg/kg/injection, schedule: Q01DX005 (ip), vehicle: saline with Tween-80
[6] = dose: 60.0 mg/kg/injection, schedule: Q01DX005 (ip), vehicle: saline with Tween-80
[7] = dose: 120.0 mg/kg/injection, schedule: Q01DX005 (ip), vehicle: saline with Tween-80
[8] = dose: 240.0 mg/kg/injection, schedule: Q01DX005 (ip), vehicle: saline with Tween-80
[9] = dose: 100.0 mg/kg/injection, schedule: Q01DX009 (ip), vehicle: saline with Tween-80
[10] = dose: 200.0 mg/kg/injection, schedule: Q01DX009 (ip), vehicle: saline with Tween-80
[11] = dose: 12.5 mg/kg/injection, schedule: Q01DX009 (ip), vehicle: saline with Tween-80
[12] = dose: 25.0 mg/kg/injection, schedule: Q01DX009 (ip), vehicle: saline with Tween-80
[13] = dose: 50.0 mg/kg/injection, schedule: Q01DX009 (ip), vehicle: saline with Tween-80

Measured: T/C

CCOc1ccc(C(C)c2cc3c(cc2OCC)OCO3)cc1C (centres undefined)
inactive: [1] 94 % of control | [2] 110 % of control and 116 % of control and 97 % of control | [3] 101 % of control and 119 % of control | [4] 114 % of control

Cc1cc(NC(=O)c2ccc(N)cc2)ccc1N=Nc1ccc2c(O)c(N=Nc3ccc(S(=O)(=O)O)cc3C)c(S(=O)(=O)O)cc2c1
inactive: [5] 100 % of control | dose: 100.0 mg/kg/injection, schedule: Q01DX005 (ip), vehicle: saline with Tween-80 90 % of control

COC(=O)Cc1onc(-c2ccccc2)c1[N+](=O)[O-]
inactive: [6] 101 % of control | [7] 101 % of control | [8] 94 % of control

CCOC(=O)C(Cc1ccccc1)NC(=O)N(CCCl)CCCl (centres undefined)
inactive: dose: 66.0 mg/kg/injection, schedule: Q04DX003 (ip), vehicle: saline with Tween-80 109 % of control | [9] 109 % of control | dose: 150.0 mg/kg/injection, schedule: Q04DX003 (ip), vehicle: saline with Tween-80 113 % of control | [10] 122 % of control

Cc1ccc(NS(=O)(=O)c2ccc([N+](=O)[O-])cc2)c(C)c1
inactive: [9] 100 % of control | [10] 105 % of control | dose: 400.0 mg/kg/injection, schedule: Q01DX009 (ip), vehicle: saline with Tween-80 115 % of control

Nc1nc(-c2c[nH]c(=O)[nH]c2=O)cs1
inactive: [11] 107 % of control | [12] 107 % of control | [13] 104 % of control

C=C1C(=O)OC2C1CCC(=C)C1CC(O)C(=C)C12 (centres undefined)
inactive: dose: 9.37 mg/kg/injection, schedule: Q01DX009 (ip), vehicle: suspension in saline 103 % of control | dose: 18.75 mg/kg/injection, schedule: Q01DX009 (ip), vehicle: suspension in saline 119 % of control and 123 % of control | dose: 37.5 mg/kg/injection, schedule: Q01DX009 (ip), vehicle: suspension in saline 121 % of control

CC(C)(C)N=C(CCSc1ccccc1)Nc1c(Cl)cccc1Cl
inactive: [13] 100 % of control | [9] 105 % of control | [10] 96 % of control

O=C1c2ccccc2C(=O)c2cc3c(cc21)OCO3
inactive: dose: 60.0 mg/kg/injection, schedule: Q01DX005 (ip), vehicle: Klucel (hydroxypropylcellulose) (HPC) 88 % of control | dose: 120.0 mg/kg/injection, schedule: Q01DX005 (ip), vehicle: Klucel (hydroxypropylcellulose) (HPC) 89 % of control

CC(=O)OC(OC(C)=O)C(CSC#N)SC#N (centres undefined)
inactive: dose: 6.25 mg/kg/injection, schedule: Q01DX005 (ip), vehicle: Klucel (hydroxypropylcellulose) (HPC) 99 % of control | dose: 12.5 mg/kg/injection, schedule: Q01DX005 (ip), vehicle: Klucel (hydroxypropylcellulose) (HPC) 99 % of control | [1] 99 % of control | [2] 102 % of control | [3] 96 % of control | [4] 113 % of control

CN(C)c1ccc(C(c2c(O)c3ccccc3oc2=O)c2c(O)c3ccccc3oc2=O)cc1
inactive: dose: 3.75 mg/kg/injection, schedule: Q01DX005 (ip), vehicle: saline with Tween-80 99 % of control | dose: 7.5 mg/kg/injection, schedule: Q01DX005 (ip), vehicle: saline with Tween-80 91 % of control | dose: 15.0 mg/kg/injection, schedule: Q01DX005 (ip), vehicle: saline with Tween-80 88 % of control and 98 % of control

COC(=O)NC1CC=CCC1I (centres undefined)
inactive: dose: 12.5 mg/kg/injection, schedule: Q01DX009 (ip), vehicle: saline 96 % of control | dose: 25.0 mg/kg/injection, schedule: Q01DX009 (ip), vehicle: saline 105 % of control | dose: 50.0 mg/kg/injection, schedule: Q01DX009 (ip), vehicle: saline 106 % of control

O=C(Cl)CC1CC(=O)OC1=O (centres undefined)
inactive: [13] 100 % of control | [9] 95 % of control

CCOC(=O)NC(=S)c1ccc[nH]1
inactive: dose: 12.5 mg/kg/injection, schedule: Q01DX009 (ip), vehicle: Klucel (hydroxypropylcellulose) (HPC) 95 % of control | dose: 25.0 mg/kg/injection, schedule: Q01DX009 (ip), vehicle: Klucel (hydroxypropylcellulose) (HPC) 87 % of control | dose: 50.0 mg/kg/injection, schedule: Q01DX009 (ip), vehicle: Klucel (hydroxypropylcellulose) (HPC) 95 % of control and 98 % of control

CSc1ccc2c(=O)c(C(=O)O)c[nH]c2c1
inactive: dose: 100.0 mg/kg/injection, schedule: Q04DX003 (ip), vehicle: saline 108 % of control | dose: 200.0 mg/kg/injection, schedule: Q04DX003 (ip), vehicle: saline 99 % of control | dose: 400.0 mg/kg/injection, schedule: Q04DX003 (ip), vehicle: saline 107 % of control

CCC1OCCN1C(C)C (centres undefined)
inactive: dose: 100.0 mg/kg/injection, schedule: Q04DX003 (ip), vehicle: saline with Tween-80 104 % of control | dose: 200.0 mg/kg/injection, schedule: Q04DX003 (ip), vehicle: saline with Tween-80 100 % of control

COc1ccc(C2=CC(=O)N(C(C)C)C2=O)cc1
inactive: [11] 107 % of control | [12] 116 % of control | [13] 107 % of control | [9] 108 % of control | [10] 109 % of control

[Cl][Rh][Cl].[NH-]c1nc(-c2ccccc2)cs1.[NH-]c1nc(-c2ccccc2)cs1.[NH-]c1nc(-c2ccccc2)cs1.[NH-]c1nc(-c2ccccc2)cs1
inactive: dose: 100.0 mg/kg/injection, schedule: Q01DX001 (ip), vehicle: DMSO 97 % of control | dose: 200.0 mg/kg/injection, schedule: Q01DX001 (ip), vehicle: DMSO 94 % of control | dose: 400.0 mg/kg/injection, schedule: Q01DX001 (ip), vehicle: DMSO 98 % of control

Cc1c(/C=C/c2oc3ccc(C(=N)N)cc3c2C)oc2ccc(C(=N)N)cc12
inactive: dose: 100.0 mg/kg/injection, schedule: Q04DX002 (ip), vehicle: saline 124 % of control

CC(C)C(NC(=O)C(Cc1ccccc1)NC(=O)OCc1ccccc1)C(=O)OCc1ccccc1 (stereo not drawn) (Cbz-Phe-Val-OBn; configuration not given here)
inactive: dose: 12.5 mg/kg/injection, schedule: Q01DX005 (ip), vehicle: saline with Tween-80 93 % of control | dose: 25.0 mg/kg/injection, schedule: Q01DX005 (ip), vehicle: saline with Tween-80 100 % of control | [5] 91 % of control and 97 % of control | dose: 200.0 mg/kg/injection, schedule: Q01DX005 (ip), vehicle: saline with Tween-80 92 % of control

[N-]=[N+]=CC(=O)CCCCC1=CCCC1=O
inactive: dose: 31.75 mg/kg/injection, schedule: Q01DX001 (ip), vehicle: saline with Tween-80 103 % of control | dose: 63.5 mg/kg/injection, schedule: Q01DX001 (ip), vehicle: saline with Tween-80 93 % of control | dose: 127.0 mg/kg/injection, schedule: Q01DX001 (ip), vehicle: saline with Tween-80 94 % of control

O=C(CNC(=O)c1ccccc1)N/N=C/c1ccccc1O
inactive: [6] 100 % of control | [7] 101 % of control | [8] 100 % of control

NC(N)=NCC[C@H](N)C(=O)O
inactive: dose: 50.0 mg/kg/injection, schedule: Q01DX005 (ip), vehicle: saline 104 % of control | dose: 100.0 mg/kg/injection, schedule: Q01DX005 (ip), vehicle: saline 104 % of control | dose: 200.0 mg/kg/injection, schedule: Q01DX005 (ip), vehicle: saline 97 % of control

Cn1ccn(CCCCCCn2ccn(C)c2=S)c1=S
inactive: dose: 3.12 mg/kg/injection, schedule: Q01DX009 (ip), vehicle: saline 103 % of control | dose: 6.25 mg/kg/injection, schedule: Q01DX009 (ip), vehicle: saline 96 % of control | dose: 12.5 mg/kg/injection, schedule: Q01DX009 (ip), vehicle: suspension in saline 92 % of control
